{"source": "patent US9000188B2", "about": "“Monocyclic cyanoenones and methods of use thereof” (Trustees of Dartmouth College, priority 2008, dated 2015)", "key": {"[1]": {"tested_on": "IFNγ-induced NO production in RAW cells", "experiment": "iNOS assay: inhibition of NO production in RAW cells stimulated by interferon-γ", "assay_type": "cell-based", "conditions": "for IC50: Suppression of IFNγ-induced NO production, 24 h, Griess reaction, average of two experiments, read-out: RAW (10 ng/ml IFNγ) IC50", "experimental": "(§1) Compounds of the present disclosure have been tested for inhibition of nitric oxide (NO) production in RAW cells stimulated by interferon-γ (iNOS assay) and induction of NAD(P)H-quinone oxidoreductase in Hepa1c1c7 cells (NQO1 assay), both assay systems we have previously employed. At the same time, CDDO and TBE-31 were tested as a positive controls in the same assays. […] The potency in the iNOS assay is more than CDDO (pentacycle), whose methyl ester is currently evaluated in Phase II clinical trials as an anti-inflammatory drug. Also the potency correlates to their reactivity as Michael acceptors based on the above-summarized UV studies.\nFor the iNOS assay, RAW cells were treated with various concentrations of compounds and interferon-γ (10 ng/mL) for 24 h. Supernatants were analyzed for nitric oxide (NO) by the Griess reaction. IC50 values are an average of two separate experiments."}, "Keap1": {"target": "Keap1 (Mus musculus, UniProt Q9Z2X8)", "sequence (Q9Z2X8 whole entry)": "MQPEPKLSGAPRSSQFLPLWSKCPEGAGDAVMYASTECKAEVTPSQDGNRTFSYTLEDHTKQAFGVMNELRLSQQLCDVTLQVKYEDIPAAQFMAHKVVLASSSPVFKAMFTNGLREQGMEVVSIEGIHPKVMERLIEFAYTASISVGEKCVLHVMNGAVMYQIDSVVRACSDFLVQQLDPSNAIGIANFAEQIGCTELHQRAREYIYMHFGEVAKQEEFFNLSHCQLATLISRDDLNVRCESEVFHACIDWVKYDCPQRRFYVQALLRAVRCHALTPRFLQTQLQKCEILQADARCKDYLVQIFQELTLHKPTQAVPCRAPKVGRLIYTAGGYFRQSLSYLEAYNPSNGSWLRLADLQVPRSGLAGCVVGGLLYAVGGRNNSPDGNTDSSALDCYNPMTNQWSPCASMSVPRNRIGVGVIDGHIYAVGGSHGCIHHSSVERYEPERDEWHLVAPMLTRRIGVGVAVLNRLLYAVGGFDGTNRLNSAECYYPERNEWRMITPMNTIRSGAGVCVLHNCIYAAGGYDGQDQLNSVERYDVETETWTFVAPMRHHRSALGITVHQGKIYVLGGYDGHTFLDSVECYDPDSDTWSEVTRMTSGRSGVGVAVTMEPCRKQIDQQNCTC", "experiment": "UV studies with Keap1", "conditions": "thiol-rich protein", "excerpt": "Keap1 is an electrophile sensor in the cellular Keap1-Nrf2-antioxidant response elements (ARE) phase II response pathway that regulates the transcription of genes for cytoprotective enzymes such as HO-1 and NQO1."}, "[2]": {"tested_on": "NAD(P)H-quinone oxidoreductase in Hepa1c1c7 cells", "experiment": "NQO1 assay: induction of NAD(P)H-quinone oxidoreductase in Hepa1c1c7 cells", "assay_type": "cell-based", "experimental": "Novel monocyclic cyano enones (MCEs) were synthesized and their Michael reactivity and biological activity were tested in order to identify useful fragments for drug discovery. […] MCE-1 gives reversible and selective Michael adducts with thiol nucleophiles.\nas §1"}, "[3]": {"tested_on": "IFNγ-induced NO production in RAW cells", "conditions": "RAW cells stimulated by interferon-γ; cited from earlier work"}, "[4]": {"tested_on": "aflatoxin-induced liver cancer", "conditions": "rats, orally active; cited from earlier work"}}, "note": "Entries after “also recorded” stand apart in the source; their conditions may differ.", "data": [{"smiles": "CC1(C)CC[C@]2(C(=O)O)CC[C@]3(C)[C@H](C(=O)C=C4[C@@]5(C)C=C(C#N)C(=O)C(C)(C)[C@@H]5CC[C@]43C)[C@@H]2C1", "note": "[CDDO, 2-cyano-3,12-diooxooleana-1,9(11)-dien-28-oic acid, reference compound]", "values": [{"measurement": "IC50", "setting": "[1]", "result": 20, "unit": "nM"}]}, {"smiles": "C#CC1(C)C=CC(=O)C(C#N)=C1", "note": "(stereo not shown) [MCE-1, 3-Ethynyl-3-methyl-6-oxocyclohexa-1,4-dienecarbonitrile]", "values": [{"measurement": "reactivity with Keap1 (UV)", "setting": "Keap1", "result": "highest reactivity"}, {"measurement": "potency in the NQO1 assay (in words)", "setting": "[2]", "result": "highly potent; also recorded: highest potency amongst MCEs"}, {"measurement": "potency in the iNOS assay (in words)", "setting": "[1]; RAW cells stimulated by interferon-γ", "result": "highly potent; also recorded: higher than CDDO; also recorded: highest potency amongst MCEs"}, {"measurement": "IC50", "setting": "[1]", "result": 8, "unit": "nM"}]}, {"smiles": "CC1(C)C=CC(=O)C(C#N)=C1", "note": "[MCE-2, reference compound]", "values": [{"measurement": "IC50", "setting": "[1]", "result": 380, "unit": "nM"}]}, {"smiles": "C#C[C@]12C=C(C#N)C(=O)C=C1[C@@]1(C)CCC(=O)C(C)(C)[C@@H]1CC2", "note": "[MCE-7]", "values": [{"measurement": "potency in the NQO1 assay (in words)", "setting": "[2]", "result": "less potent than MCE-1"}, {"measurement": "IC50", "setting": "[1]", "result": "> 300", "unit": "nM"}, {"measurement": "activity in the iNOS assay", "setting": "[1]; at a concentration of 300 nM", "result": "inactive"}]}, {"smiles": "C=CC1(C)C=CC(=O)C(C#N)=C1", "note": "(stereo not shown) [MCE-15, 3-methyl-6-oxo-3-vinyl-cyclohexa-1,4-dienecarbonitrile]", "values": [{"measurement": "IC50", "setting": "[1]", "result": 300, "unit": "nM"}]}, {"smiles": "C#CC12C=C(C#N)C(=O)C=C1[C@@]1(C)C=C(C#N)C(=O)C(C)(C)[C@@H]1CC2", "note": "(stereo partly shown) [TBE-31]", "values": [{"measurement": "inhibition of NO production (iNOS assay), literature", "setting": "[3]", "result": "low nanomolecular concentrations"}, {"measurement": "potency against aflatoxin-induced liver cancer", "setting": "[4]", "result": "exceptionally potent"}, {"measurement": "IC50", "setting": "[1]", "result": 1, "unit": "nM"}]}]}
